Measured values reported in patent US5578620A, “Thiazolidine and oxazolidine derivatives, their preparation and their medical use” (Sankyo Company, Limited, priority 1994, dated 1996).
pIC50: −log10 of the molar value.

What was measured:
[1] = system: blood glucose level (BGL); experiment: Hypoglycemic activity (blood glucose lowering rate) in hyperglycemic KK mice; type: in vivo, male mice of the KK strain; conditions: Mus musculus, oral, 18 hours
Experimental: The test animals used were hyperglycemic male mice of the KK strain, each having a body weight more than 40 g. Each animal was orally administered a test compound in the amount shown in the following Table 8 and then allowed to feed freely for 18 hours. At the end of this time, blood was collected from the tail veins without anesthesia. The blood glucose level (BGL) was determined by means of a glucose analyzer (GL-101, manufactured by Mitsubishi Kasei Co. or Glucoroder manufactured by Shino Test Co.).
The blood glucose lowering rate was calculated by the following equation:
Blood glucose lowering rate (%)=
BGLs is the BGL in the group administered a solvent only, but no active compound; and
BGLt is the BGL in the group administered a test compound.
The results are shown in the following Table 8, in which each compound of the present invention is identified by the number of one of the following Examples in which its preparation is illustrated.

[2] = Toxicity, oral administration for 2 weeks; type: in vivo, male F344 rats; conditions: 50 mg/kg; for mortality rate: male F344 rats, oral, 2 weeks
Experimental: The toxicity of the compounds of the present invention was tested on male F344 rats, divided into groups of 5. The test compound was adminstered orally to each test animal at a dose of 50 mg/kg of body weight for 2 weeks. The test compounds used were those of Examples 20, 45 (polar, less polar) and 47 (polar).

[3] = biological target: T1, Bovine lens aldose reductase (Bos taurus, UniProt P16116); experiment: Inhibition of Aldose reductase; type: biochemical; conditions: for inhibition at 5 µg/mL: read-out: Inhibition at 5 μg/ml
T1 construct: Bovine lens aldose reductase was separated and partially purified; from tissue; host or cells: bovine lens
Experimental: Bovine lens aldose reductase was separated and partially purified by the method of S. Hyman and J. H. Kinoshita [J. Biol. Chem., 240, 877 (1965)] and K. Inagaki, I. Miwa and J. Okuda [Arch. Biochem. Biophys., 316, 337 (1982)], and its activity was determined photometrically by the method of Varma et al. [Biochem. Pharmac., 25, 2505 (1976)]. […]

Question: Which inhibition in vivo at 1 mg/kg [1] does the source give for `CC(COc1ccc(CC2SC(=O)NC2=O)cc1)NCC(O)COCc1ccccc1` (centres unmarked) [Example 15, 5-{4-[2-(3-Benzyloxy-2-hydroxypropylamino)propoxy]benzyl}thiazolidine-2,4-dione] here?
Answer: Its inhibition in vivo at 1 mg/kg is 19.1%.

Question: Which results are given for `CCC(COc1ccc(CC2SC(=O)NC2=O)cc1)N1CC(COc2cccc(Cl)c2)OC1=O` (centres unmarked) [47 (polar), 5-{4-[2-(5-3'-Chlorophenoxymethyl-2-oxooxazolidin-3-yl)butoxy]benzyl}thiazolidine-2,4-dione]?
Answer: mortality rate [2]: zero; abnormalities observed during 2 successive weeks ([2]; rat, in vivo, po): no abnormalities which could be attributed to the test coumpounds; pIC50 [3]: 6.34; inhibition at 5 µg/mL [3]: 86.6%; inhibition in vivo at 1 mg/kg [1]: 34.7%

Question: With `CC(COc1ccc(CC2SC(=O)NC2=O)cc1)NCC(O)COCCCCCCc1ccccc1` (centres unmarked) [Example 20, 5-{4-[2-(3-6'-Phenylhexyloxy-2-hydroxypropylamino)propoxy]benzyl}thiazolidine-2,4-dione] as the compound, how does the mortality rate [2] read?
Answer: The mortality rate was “zero”.

Question: And the “abnormalities observed during 2 successive weeks” value ([2]; rat, in vivo, po)?
Answer: The value was “no abnormalities which could be attributed to the test coumpounds”.

Question: And the pIC50 [3]?
Answer: The pIC50 was 5.46.

Question: And the inhibition at 5 µg/mL [3]?
Answer: Its inhibition at 5 µg/mL is 69.1%.

Question: And the inhibition in vivo at 1 mg/kg [1]?
Answer: The inhibition in vivo at 1 mg/kg was 37.9%.

Question: With `COc1ccc(OCC2CN(C(C)COc3ccc(CC4SC(=O)NC4=O)cc3)C(=O)O2)cc1` (single isomer, unassigned) [31 (less polar), 5-{4-[2-(5-4'-Methoxyphenoxymethyl-2-oxooxazolidin-3-yl)propoxy]benzyl}thiazolidine-2,4-dione] as the compound, how does the pIC50 [3] read?
Answer: The pIC50 was 5.41.

Question: And the inhibition at 5 µg/mL [3]?
Answer: Its inhibition at 5 µg/mL is 67.8%.

Question: What about the inhibition in vivo at 1 mg/kg [1] of the same compound?
Answer: Its inhibition in vivo at 1 mg/kg is 21.6%.

Question: With `CC(COc1ccc(CC2SC(=O)NC2=O)cc1)NCC(O)COCCCCc1ccccc1` (centres unmarked) [Example 19, 5-{4-[2-(3-4'-Phenylbutoxy-2-hydroxypropylamino)propoxy]benzyl}thiazolidine-2,4-dione] as the compound, how does the pIC50 [3] read?
Answer: Its pIC50 is 5.10.

Question: What about the inhibition at 5 µg/mL [3] of the same compound?
Answer: The inhibition at 5 µg/mL was 56.1%.

Question: What about the inhibition in vivo at 1 mg/kg [1] of the same compound?
Answer: The inhibition in vivo at 1 mg/kg was 15.8%.

Question: With `C[C@H](COc1ccc(CC2SC(=O)NC2=O)cc1)N1C[C@@H](COc2cccc(Cl)c2)OC1=O` (stereo partly drawn) [Example 11, 5-[4-{2(R)-[5(S)-(3-Chlorophenoxymethyl)-2-oxooxazolidin-3-yl]propoxy}benzyl]thiazolidine-2,4-dione] as the compound, how does the inhibition in vivo at 1 mg/kg [1] read?
Answer: The inhibition in vivo at 1 mg/kg was 24.3%.

Question: With `CC(COc1ccc(CC2SC(=O)NC2=O)cc1)N1CC(COCCCCCCCCc2ccccc2)OC1=O` (centres unmarked) [Example 28, 5-{4-[2-(5-8'-Phenyloctyloxymethyl-2-oxooxazolidin-3-yl)propoxy]benzyl}thiazolidine-2,4-dione] as the compound, how does the inhibition in vivo at 1 mg/kg [1] read?
Answer: The inhibition in vivo at 1 mg/kg was 13.6%.

Question: What does the source list for `CC(COc1ccc(CC2SC(=O)NC2=O)cc1)N1CC(COc2cccc(Cl)c2)OC1=S` (single isomer, unassigned) [Example 45 (less polar), 5-{4-[2-(5-3'-Chlorophenoxymethyl-2-thioxooxazolidin-3-yl)propoxy]benzyl}thiazolidine-2,4-dione]?
Answer: mortality rate [2]: zero; abnormalities observed during 2 successive weeks ([2]; rat, in vivo, po): no abnormalities which could be attributed to the test coumpounds; hematological examinations (red blood cell counts) ([2]; rat, in vivo, po): slighly decrease in red blood cell counts; inhibition in vivo at 1 mg/kg [1]: 27.2%

Question: With `O=C1NC(=O)C(Cc2ccc(OCCN3CC(COc4cccc(Cl)c4)OC3=O)cc2)S1` (centres unmarked) [Example 6, 5-{4-[2-(5-3'-Chlorophenoxymethyl-2-oxooxazolidin-3-yl)ethoxy]benzyl}thiazolidine-2,4-dione] as the compound, how does the inhibition in vivo at 1 mg/kg [1] read?
Answer: The inhibition in vivo at 1 mg/kg was 19.2%.

Question: With `CC(COc1ccc(CC2SC(=O)NC2=O)cc1)N1CC(COc2ccc(-c3ccccc3)cc2)OC1=S` (centres unmarked) [36 (polar), 5-{4-[2-(5-4'-Phenylphenoxymethyl-2-thioxooxazolidin-3-yl)propoxy]benzyl}thiazolidine-2,4-dione] as the compound, how does the inhibition in vivo at 1 mg/kg [1] read?
Answer: The inhibition in vivo at 1 mg/kg was 13.7%.

Question: With `CC(COc1ccc(CC2SC(=O)NC2=O)cc1)NCC(O)COCc1cccc(Cl)c1` (centres unmarked) [Example 41, 5-{4-[2-(3-3'-Chlorobenzyloxy-2-hydroxypropylamino)propoxy]benzyl}thiazolidine-2,4-dione] as the compound, how does the pIC50 [3] read?
Answer: Its pIC50 is 5.18.

Question: And the inhibition at 5 µg/mL [3]?
Answer: The inhibition at 5 µg/mL was 57.4%.

Question: And the inhibition in vivo at 1 mg/kg [1]?
Answer: Its inhibition in vivo at 1 mg/kg is 18.2%.

Question: With `CC(COc1ccc(CC2SC(=O)NC2=O)cc1)N1CC(COc2cccc(Cl)c2)OC1=O` (centres unmarked) [Example 1, 5-{4-[2-(5-3'-Chlorophenoxymethyl-2-oxooxazolidin-3-yl)propoxy]benzyl}thiazolidine-2,4-dione] as the compound, how does the pIC50 [3] read?
Answer: Its pIC50 is 6.65.

Question: What about the inhibition at 5 µg/mL [3] of the same compound?
Answer: Its inhibition at 5 µg/mL is 89.6%.

Question: What about the inhibition in vivo at 1 mg/kg [1] of the same compound?
Answer: Its inhibition in vivo at 1 mg/kg is 28.5%.

Question: With `CC(COc1ccc(CC2SC(=O)NC2=O)cc1)N1CC(COc2cccc(Cl)c2)OC1=S` (centres unmarked) [45 (polar), 5-{4-[2-(5-3'-Chlorophenoxymethyl-2-thioxooxazolidin-3-yl)propoxy]benzyl}thiazolidine-2,4-dione] as the compound, how does the mortality rate [2] read?
Answer: Its mortality rate is “zero”.

Question: And the “abnormalities observed during 2 successive weeks” value ([2]; rat, in vivo, po)?
Answer: The value was “no abnormalities which could be attributed to the test coumpounds”.

Question: What about the inhibition in vivo at 1 mg/kg [1] of the same compound?
Answer: Its inhibition in vivo at 1 mg/kg is 23.9%.

Question: With `C[C@@H](COc1ccc(CC2SC(=O)NC2=O)cc1)N1C[C@@H](COc2cccc(Cl)c2)OC1=O` (stereo partly drawn) [Example 13, 5-[4-{2(S)-[5(S)-(3-Chlorophenoxymethyl)-2-oxooxazolidin-3-yl]propoxy}benzyl]thiazolidine-2,4-dione] as the compound, how does the inhibition in vivo at 1 mg/kg [1] read?
Answer: The inhibition in vivo at 1 mg/kg was 29.9%.

Question: Which inhibition in vivo at 1 mg/kg [1] does the source give for `CC(C)C(COc1ccc(CC2SC(=O)NC2=O)cc1)N1CC(COc2cccc(Cl)c2)OC1=O` (centres unmarked) [51 (polar), 5-{4-[2-(5-3'-Chlorophenoxymethyl-2-oxooxazolidin-3-yl)-3-methylbutoxy]benzyl}thiazolidine-2,4-dione] here?
Answer: Its inhibition in vivo at 1 mg/kg is 20.8%.

Question: With `CC(COc1ccc(CC2SC(=O)NC2=O)cc1)N1CC(COc2ccc(-c3ccccc3)cc2)OC1=O` (centres unmarked) [Example 35, 5-{4-[2-(5-4'-Phenylphenoxymethyl-2-oxooxazolidin-3-yl)propoxy]benzyl}thiazolidine-2,4-dione] as the compound, how does the inhibition in vivo at 1 mg/kg [1] read?
Answer: Its inhibition in vivo at 1 mg/kg is 13.5%.

Question: Which results are given for `CC(COc1ccc(CC2SC(=O)NC2=O)cc1)N1CC(COCc2ccccc2)OC1=O` (centres unmarked) [Example 22, 5-{4-[2-(5-Benzyloxymethyl-2-oxooxazolidin-3-yl)propoxy]benzyl}thiazolidine-2,4-dione]?
Answer: pIC50 [3]: 5.44; inhibition at 5 µg/mL [3]: 70.1%; inhibition in vivo at 1 mg/kg [1]: 14.3%

Question: For `CC(COc1ccc(CC2SC(=O)NC2=O)cc1)N1CC(COCCCCCCCc2ccccc2)OC1=O` (centres unmarked) [Example 29, 5-{4-[2-(5-7'-Phenylheptyloxymethyl-2-oxooxazolidin-3-yl)propoxy]benzyl}thiazolidine-2,4-dione], which inhibition in vivo at 1 mg/kg [1] is on record?
Answer: The inhibition in vivo at 1 mg/kg was 18.1%.

Question: Which inhibition in vivo at 1 mg/kg [1] does the source give for `CCCC(COc1ccc(CC2SC(=O)NC2=O)cc1)N1CC(COc2cccc(Cl)c2)OC1=O` (single isomer, unassigned) [Example 50 (less polar), 5-{4-[2-(5-3'-Chlorophenoxymethyl-2-oxooxazolidin-3-yl)pentyloxy]benzyl}thiazolidine-2,4-dione] here?
Answer: Its inhibition in vivo at 1 mg/kg is 17.5%.

Question: Which inhibition in vivo at 1 mg/kg [1] does the source give for `CC(COc1ccc(CC2SC(=O)NC2=O)cc1)NCC(O)COCCc1ccccc1` (centres unmarked) [Example 18, 5-{4-[2'-(3-2'-phenylethoxy-2-hydroxypropylamino)propoxy]benzyl}thiozolidine-2,4-dione] here?
Answer: Its inhibition in vivo at 1 mg/kg is 10.5%.

Question: With `CC(COc1ccc(CC2SC(=O)NC2=O)cc1)NCC(O)Cc1ccccc1` (centres unmarked) [Example 7, 5-{4-[2-(3-Phenyl-2-hydroxypropylamino)propoxy]benzyl}thiazolidine-2,4-dione] as the compound, how does the inhibition in vivo at 1 mg/kg [1] read?
Answer: The inhibition in vivo at 1 mg/kg was 36.3%.
